Values quoted from earlier work in patent US4464385A, “Treatment of diabetic complications with hydantoins” (Alcon Laboratories, Inc., priority 1982, dated 1984).

Test system: aldose reductase
Conditions: U.S. Pat. No. 4,130,714; cited from earlier work

## O=C1NC(=O)C2(CCSc3ccc(F)cc32)N1 (single isomer, unassigned) [d-6'-fluoro-spiro[imidazolidine-4,4'-thiochroman]-2,5' dione]
  activity in preventing chronic diabetic complications: enhanced activity
